Data: PubChem BioAssay (NCI)
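Following 48 hours of exposure in 96-well plates, responses at five concentrations were used to interpolate endpoints linearly. TGI is the concentration that stops growth completely.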

Tests used:
Assay in all cases: inhibition of tumour cell growth, NCI panel, 48 h
[1] = system: MDA-N
[2] = system: PC-3 prostate
[3] = system: UACC-62 melanoma
[4] = system: MDA-MB-435
[5] = system: HCT-116 colon
[6] = system: U251 CNS
[7] = system: SK-MEL-28 melanoma
[8] = system: NCI-H226 lung
[9] = system: ACHN renal
[10] = system: OVCAR-3 ovarian
[11] = system: SNB-19 CNS
[12] = system: IGROV1 ovarian
[13] = system: A549 NSCLC
[14] = system: UACC-257 melanoma
[15] = system: HS 578T breast
[16] = system: NCI-H23 lung
[17] = system: SF-539 CNS
[18] = system: 786-0 renal
[19] = system: SW-620 colon
[20] = system: SNB-75 CNS
[21] = system: SK-MEL-5 melanoma
[22] = system: SF-268 CNS
[23] = system: MCF7 breast
[24] = system: MALME-3M melanoma
[25] = system: NCI/ADR-RES ovarian
[26] = system: M14 melanoma
[27] = system: KM12 colon
[28] = system: OVCAR-4 ovarian
[29] = system: DU-145 prostate
[30] = system: SN12C renal
[31] = system: HOP-92 NSCLC
[32] = system: T-47D breast
[33] = system: OVCAR-5 ovarian
[34] = system: K-562 leukemia
[35] = system: RPMI-8226 leukemia
[36] = system: BT-549 breast
[37] = system: RXF 393 renal
[38] = system: SK-OV-3 ovarian
[39] = system: OVCAR-8 ovarian
[40] = system: HCC-2998 colon
[41] = system: NCI-H460 lung
[42] = system: SF-295 CNS
[43] = system: HT29 colon
[44] = system: EKVX NSCLC
[45] = system: HL-60(TB) leukemia
[46] = system: HCT-15 colon
[47] = system: HOP-62 NSCLC
[48] = system: TK-10 renal

What does the source list for `CCn1c(CCl)nc2c1C(=O)c1ccccc1C2=O`?
TGI [1]: 3.85 µM; TGI [2]: 4.53 µM; TGI [3]: 3.14 µM; TGI [4]: 3.12 µM; TGI [5]: 4.32 µM; TGI [6]: 3.12 µM; TGI [7]: 3.19 µM; TGI [8]: 0.473 µM; TGI [9]: 13.2 µM; TGI [10]: 3.05 µM; TGI [11]: 3.59 µM; TGI [12]: 3.86 µM; TGI [13]: > 100 µM; TGI [14]: 3.36 µM; TGI [15]: 6.24 µM; TGI [16]: 3.12 µM; TGI [17]: 4.89 µM; TGI [18]: > 100 µM; TGI [19]: 2.75 µM; TGI [20]: 3.62 µM; TGI [21]: 2.84 µM; TGI [22]: 6.65 µM; TGI [23]: 3.79 µM; TGI [24]: 2.41 µM; TGI [25]: 6.5 µM; TGI [26]: 3.22 µM; TGI [27]: 3.23 µM; TGI [28]: 3.08 µM; TGI [29]: 9.02 µM; TGI [30]: 2.97 µM; TGI [31]: 3.75 µM; TGI [32]: 4.21 µM; TGI [33]: 3.25 µM; TGI [34]: > 100 µM; TGI [35]: > 100 µM; TGI [36]: 4.09 µM; TGI [37]: 3.29 µM; TGI [38]: 2.38 µM; TGI [39]: 2.95 µM; TGI [40]: 2.9 µM; TGI [41]: 3.9 µM; TGI [42]: 3.54 µM; TGI [43]: 3.47 µM; TGI [44]: 6.44 µM; TGI [45]: 6.85 µM; TGI [46]: 3.19 µM; TGI [47]: 4.95 µM; TGI [48]: 8.73 µM
